Some test systems named below: HOP-62 NSCLC; ACHN renal; SF-539 CNS; HS 578T breast; K-562 leukemia; OVCAR-5 ovarian; CCRF-CEM leukemia; UACC-62 melanoma; SK-MEL-2 melanoma; OVCAR-4 ovarian.
Holding throughout (test): NCI anticancer screen, dose series, 48 h

The structures appear in SMILES notation.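 Each compound was tested at five concentrations against cells in 96-well plates for 48 hours. The concentration for full growth arrest is given as TGI.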

Regarding `NC(Cc1[nH]nc2ccccc12)C(=O)O` (stereo not given), the TGI with HOP-62 NSCLC, with ACHN renal, with SF-539 CNS, in the assay with HS 578T breast, with K-562 leukemia and in the assay on OVCAR-5 ovarian was above 100 µM each time. In addition, the TGI in the assay on CCRF-CEM leukemia, in the assay with UACC-62 melanoma, in the assay on SK-MEL-2 melanoma and in the assay with OVCAR-4 ovarian was above 100 µM each time.
In the case of `CCOc1ccc(NCC2CC/C(=C\C=C\c3ccccc3)C2=O)cc1` (stereo not given), the TGI in the assay with HOP-62 NSCLC was above 62 µM; in the assay on ACHN renal it was above 92.2 µM; with SF-539 CNS, 37.8 µM; in the assay with HS 578T breast, 65.2 µM; in the assay on K-562 leukemia, above 100 µM; in the assay with OVCAR-5 ovarian it was 53.4 µM. The TGI in the assay with CCRF-CEM leukemia is above 100 µM; in the assay on UACC-62 melanoma, 54.2 µM; in the assay with SK-MEL-2 melanoma it was above 100 µM; in the assay with OVCAR-4 ovarian, 73.9 µM.
As for `COc1ccc2c(c1)-c1c(c3cc(OC)ccc3n1CCN(C)C)CC2`, the TGI in the assay on HOP-62 NSCLC came to 29.9 µM; with ACHN renal, 28.4 µM; in the assay on SF-539 CNS, 29.8 µM; in the assay on HS 578T breast, 28 µM; in the assay with K-562 leukemia, 26.5 µM; in the assay on OVCAR-5 ovarian, 29.9 µM. Besides, the TGI with CCRF-CEM leukemia worked out at 26.4 µM; with UACC-62 melanoma, 22.8 µM; with SK-MEL-2 melanoma, 29 µM; in the assay on OVCAR-4 ovarian it was 33.1 µM.
As for `O=CN1CCN(C(=O)c2ccco2)C1=S`, the TGI is 36.2 µM in the assay on HOP-62 NSCLC; 24 µM in the assay on ACHN renal; 22.8 µM with SF-539 CNS; above 100 µM in the assay with HS 578T breast; 29.5 µM in the assay with K-562 leukemia; 37.7 µM in the assay on OVCAR-5 ovarian. Also, the TGI was above 37.1 µM in the assay with CCRF-CEM leukemia, 20.7 µM in the assay on UACC-62 melanoma, 40.6 µM in the assay on SK-MEL-2 melanoma and 46.6 µM with OVCAR-4 ovarian.
For the compound `C=C1CC(COc2ccc3c(C)c(C)c(=O)oc3c2C)(c2ccccc2)OC1=O` (stereo not given), the TGI in the assay with HOP-62 NSCLC came to 20.8 µM; in the assay on ACHN renal, 7.51 µM; in the assay with SF-539 CNS, 4.75 µM; in the assay on HS 578T breast, 13 µM; in the assay on K-562 leukemia, 3.88 µM; in the assay with OVCAR-5 ovarian it was 25.1 µM. Moreover, the TGI in the assay on CCRF-CEM leukemia was 1.55 µM; in the assay on UACC-62 melanoma it was 3.42 µM; with SK-MEL-2 melanoma, 3.91 µM; in the assay on OVCAR-4 ovarian it was 4.82 µM.
`O=C(Sc1c(-c2ccccc2)c(=O)n(-c2ccccc2)c(=S)n1-c1ccccc1)c1ccco1`: the TGI in the assay on HOP-62 NSCLC, in the assay on ACHN renal, in the assay with SF-539 CNS, with HS 578T breast, in the assay with K-562 leukemia and in the assay on OVCAR-5 ovarian was above 100 µM each time. For the same compound, the TGI is 69.3 µM with CCRF-CEM leukemia, above 100 µM in the assay on UACC-62 melanoma, above 100 µM with SK-MEL-2 melanoma and above 100 µM with OVCAR-4 ovarian.
Turning to `CCCCCCCCCCCCNC(=O)CCC(NC(=O)c1ccc(N(C)Cc2cnc3nc(N)nc(N)c3n2)cc1)C(=O)NCCCCCCCCCCCC` (stereo not given), the TGI was 95.6 µM with HOP-62 NSCLC; above 100 µM in the assay with ACHN renal; above 100 µM with SF-539 CNS; above 100 µM in the assay with HS 578T breast; 62.6 µM with K-562 leukemia; above 100 µM with OVCAR-5 ovarian. Moreover, the TGI in the assay on CCRF-CEM leukemia is 66.7 µM; in the assay with UACC-62 melanoma it was above 100 µM; in the assay with SK-MEL-2 melanoma, above 100 µM; in the assay on OVCAR-4 ovarian it was above 100 µM.
As for `Cc1cc(OCc2nnc3sc(NC(=O)c4ccccc4)nn23)ccc1Cl`, the TGI with HOP-62 NSCLC was 48.2 µM; in the assay with ACHN renal it was 42.9 µM; in the assay on SF-539 CNS it was above 100 µM; with HS 578T breast, 95.6 µM; in the assay on K-562 leukemia, above 100 µM; with OVCAR-5 ovarian, above 100 µM. The TGI in the assay with CCRF-CEM leukemia is above 100 µM; in the assay with UACC-62 melanoma, above 100 µM; in the assay on SK-MEL-2 melanoma, 80.5 µM; in the assay with OVCAR-4 ovarian, above 100 µM.
As for `CC(=O)C1(O)CCC2(O)C3(O)CC=C4CC(O)CCC4(C)C3CC(OC(=O)c3ccc(O)cc3)C12C` (stereo not given), the TGI in the assay on HOP-62 NSCLC, with ACHN renal, in the assay with SF-539 CNS, in the assay on HS 578T breast, in the assay with K-562 leukemia and in the assay with OVCAR-5 ovarian was above 100 µM throughout. In addition, the TGI in the assay with CCRF-CEM leukemia, in the assay with UACC-62 melanoma, in the assay with SK-MEL-2 melanoma and with OVCAR-4 ovarian was above 100 µM each time.
Turning to `CCCCCCc1cc2cc(-c3csc(-c4ccc(OC)cc4)n3)c(=O)oc2cc1O`, the TGI was 29.6 µM with HOP-62 NSCLC; 25.1 µM in the assay on ACHN renal; 25.6 µM with SF-539 CNS; 60.7 µM in the assay with HS 578T breast; above 100 µM in the assay with K-562 leukemia; 79.9 µM in the assay with OVCAR-5 ovarian. Further, the TGI with CCRF-CEM leukemia is above 100 µM; with UACC-62 melanoma it was 24.6 µM; with SK-MEL-2 melanoma, 32 µM; in the assay on OVCAR-4 ovarian, 7.39 µM.
`COc1cc2c3cc1Oc1c(OC)c(OC)cc4c1C(Cc1ccc(O)c(c1)Oc1ccc(cc1)CC3N(C)CC2)CN(C)C4` (stereo not given): the TGI in the assay with HOP-62 NSCLC is 37.2 µM; in the assay on ACHN renal, above 100 µM; in the assay on SF-539 CNS, 26.9 µM; in the assay on HS 578T breast, 38.9 µM; with K-562 leukemia it was 29.6 µM; with OVCAR-5 ovarian it was 44.8 µM. The TGI with CCRF-CEM leukemia is 15.6 µM; in the assay with UACC-62 melanoma, 32.1 µM; in the assay on SK-MEL-2 melanoma it was 33.6 µM; in the assay on OVCAR-4 ovarian it was 39.1 µM.
In the case of `Cc1cn(CCCCCOC(=O)NC(CCCNC(N)=O)C(=O)O)c(=O)[nH]c1=O` (stereo not given), the TGI with HOP-62 NSCLC, with ACHN renal, with SF-539 CNS, with HS 578T breast, in the assay with K-562 leukemia and in the assay on OVCAR-5 ovarian was above 100 µM in each case. Moreover, the TGI with CCRF-CEM leukemia, with UACC-62 melanoma, in the assay with SK-MEL-2 melanoma and with OVCAR-4 ovarian was above 100 µM in each case.
On to `NC(N)=NS(=O)(=O)c1ccc(NC(=O)c2cccc3c(NNc4ccc(S(N)(=O)=O)cc4)c4ccccc4nc23)cc1`, for which the TGI in the assay on HOP-62 NSCLC is above 100 µM; in the assay on ACHN renal, above 100 µM; in the assay on SF-539 CNS, above 100 µM; with HS 578T breast, above 100 µM; in the assay on K-562 leukemia, 55 µM; in the assay with OVCAR-5 ovarian, above 100 µM. Besides, the TGI in the assay on CCRF-CEM leukemia, with UACC-62 melanoma, in the assay on SK-MEL-2 melanoma and in the assay with OVCAR-4 ovarian was above 100 µM in each case.
Turning to `COc1cccc(N2C(=O)CS(=O)(=O)C2c2cccc(Oc3ccccc3)c2)c1` (stereo not given), the TGI with HOP-62 NSCLC is above 100 µM; in the assay on ACHN renal, 60.2 µM; with SF-539 CNS, 38.4 µM; in the assay with HS 578T breast, 70 µM; in the assay on K-562 leukemia, 19.5 µM; with OVCAR-5 ovarian, above 100 µM. The TGI is above 100 µM with CCRF-CEM leukemia, 24.7 µM with UACC-62 melanoma, 38.8 µM with SK-MEL-2 melanoma and above 100 µM with OVCAR-4 ovarian.
Regarding `CC(C)(C)c1cc(/C=C2/NC(=O)NC2=O)cc(C(C)(C)C)c1O`, the TGI was found to be 33.1 µM in the assay on HOP-62 NSCLC; 24.1 µM in the assay with ACHN renal; 31.6 µM with SF-539 CNS; 36 µM in the assay with HS 578T breast; 33.1 µM in the assay on K-562 leukemia; 30.8 µM in the assay with OVCAR-5 ovarian. For the same compound, the TGI in the assay on CCRF-CEM leukemia is 32.8 µM; in the assay with UACC-62 melanoma it was 30.5 µM; with SK-MEL-2 melanoma, 27.2 µM; in the assay on OVCAR-4 ovarian it was 26 µM.
In the case of `O=[N+]([O-])/C(Cl)=C(/C(Cl)=C(Cl)Cl)N1CCCCC1`, the TGI was 40.8 µM in the assay with HOP-62 NSCLC; 30.7 µM in the assay with ACHN renal; 31.9 µM in the assay with SF-539 CNS; 64.4 µM with HS 578T breast; 25.3 µM in the assay on K-562 leukemia; 29.2 µM in the assay on OVCAR-5 ovarian. In addition, the TGI with CCRF-CEM leukemia stood at 19.7 µM; with UACC-62 melanoma it was 17.1 µM; in the assay on SK-MEL-2 melanoma, 48 µM; in the assay on OVCAR-4 ovarian it was 27.5 µM.
Take `CC(O)CNC1=CC(=O)C(=O)c2ccccc21` (stereo not given): the TGI in the assay with HOP-62 NSCLC is 32.4 µM; in the assay on ACHN renal, 35.6 µM; with SF-539 CNS, 38.5 µM; in the assay with HS 578T breast, 61.8 µM; in the assay on K-562 leukemia, above 100 µM; in the assay on OVCAR-5 ovarian, 35.6 µM. Further, the TGI with CCRF-CEM leukemia was above 100 µM; in the assay on UACC-62 melanoma, 26.8 µM; with SK-MEL-2 melanoma, 32.9 µM; with OVCAR-4 ovarian, 26 µM.

The record behind these values is PubChem BioAssay (NCI).
